From US7977362B2, “Alpha-(N-benzenesulfonamido)cycloalkyl derivatives” (Bristol-Myers Squibb Company, priority 2009, dated 2011)

tested on: Aβ formation (γ-secretase) in H4 cells stably transfected to overexpress the HPLAP-APP fusion protein; assay: In vitro assay based on the inhibition of Aβ formation in cultured cells; format: cell-based, human; conditions: Homo sapiens, 18 h, H4 cells overexpressing HPLAP-APP, 18 hrs incubation at 37° C., Aβ in supernatant by time-resolved fluorescence; class symbols
Procedure: Cultured human cell lines, such as HEK293 and H4 cells, which express APP and γ-secretase activity or transfected derivative cell lines that overexpress wild-type APP, mutant APP, or APP fusion proteins will secrete Aβ peptides into the culture media that can be quantified as previously outlined (Dovey, H. et al., J. Neurochem., 76:173-181 (2001)). The incubation of these cultured cells with γ-secretase inhibitors decreases the production of Aβ peptides. For instance, H4 cells stably transfected to overexpress the HPLAP-APP fusion protein described above were grown as above, detached, and adjusted to 2×10^5 cells/ml. 100 μl of the resulting suspension was then added to each well of a 96-well plate. After 4 hrs, the media was removed and replaced with 100 μl serum-free media containing various dilutions of the test compound. Plates were then incubated for 18 hrs at 37° C. and a 100 μl aliquot of the tissue culture supernatant was removed for determination of Aβ levels using time-resolved fluorescence of the homogenous sample as outlined above. Alternately, the other methods described above for Aβ determination could be used. The extent of Aβ inhibition was used to calculate the IC50 value for the test compound.
In the table, an inhibitory concentration (IC50) of less than or equal to 50 nM is represented by +++; between 50 nM and 500 nM by ++; between 500 nM and 5000 nM by +.

`CC(C)(O)[C@@H]1CCCC[C@H]1N(Cc1ccc(-c2ncco2)cc1F)S(=O)(=O)c1ccc(Cl)cc1` [Compound 23, 4-Chloro-N-(2-fluoro-4-(oxazol-2-yl)benzyl)-N-((1R,2R)-2-(2-hydroxypropan-2-yl)cyclohexyl)benzenesulfonamide] and `O=S(=O)(c1ccc(Cl)cc1)N(Cc1ccc(-c2ncco2)cc1)C1CC2CCC1C2O` (stereo not shown) [Compound 34, N-(4-(Oxazol-2-yl)benzyl)-N-(7-hydroxybicyclo[2.2.1]heptan-2-yl)-4-chlorobenzenesulfonamide] fall in the same range of IC50: 500 to 5000 nM for the first, 500 to 5000 nM for the second.

First: O=S(=O)(c1ccc(C(F)(F)F)nc1)N(Cc1cc(F)c(-c2ncon2)cc1F)[C@@H]1CCCC[C@H]1CO [Compound 26, N-(2,5-Difluoro-4-(1,2,4-oxadiazol-3-yl)benzyl)-N-((1R,2R)-2-(hydroxymethyl)cyclohexyl)-6-(trifluoromethyl)pyridine-3-sulfonamide]
Second: O=S(=O)(c1ccc(Cl)cc1)N(Cc1ccc(-c2ncon2)cc1)C1(CO)CCCCC1 [Compound 37, N-(4-(1,2,4-Oxadiazol-3-yl)benzyl)-4-chloro-N-(1-(hydroxymethyl)cyclohexyl)benzenesulfonamide]
The IC50 of the first is lower: ≤ 50 nM for the first, 500 to 5000 nM for the second. The first is the more potent here.

In the case of `O=S(=O)(c1ccc(Cl)cc1)N(Cc1ccc(Br)cc1)C1CC2CCC1C2O` (stereo not shown) [Compound 33, N-(4-Bromobenzyl)-N-(7-hydroxybicyclo[2.2.1]heptan-2-yl)-4-chlorobenzenesulfonamide], the IC50 is reported as 500 to 5000 nM.

same assay, conditions: Homo sapiens, 18 h, H4 cells overexpressing HPLAP-APP, 18 hrs incubation at 37° C., Aβ in supernatant by time-resolved fluorescence; numeric values

Going from `O=S(=O)(c1ccc(Cl)cc1)N(Cc1ccc(-c2ncon2)cc1)C1CC2CCC1C2O` (stereo not shown) [Compound 35, N-(4-(1,2,4-Oxadiazol-3-yl)benzyl)-N-(7-hydroxybicyclo[2.2.1]heptan-2-yl)-4-chlorobenzenesulfonamide] to `O=S(=O)(c1ccc(Cl)cc1)N(Cc1ccc(-c2ncco2)cc1)C1(CO)CCCCC1` [Compound 36, 4-Chloro-N-(1-(hydroxymethyl)cyclohexyl)-N-(4-(oxazol-2-yl)benzyl)benzenesulfonamide], the IC50 falls from 3240 nM to 346 nM (9.4-fold).
